Values of other authors as cited in patent publication US20250270235A1, “COMPLEX OF GADOLINIUM AND A CHELATING LIGAND DERIVED OF A DIASTEREOISOMERICALLY ENRICHED PCTA AND SYNTHESIS METHOD” (GUERBET, priority 2019, published 2025).

How the values were obtained:
[1] = comparative, same conditions (pH 1.2, 37° C.); cited from earlier work
[2] = as described in WO 2014/174120; comparative; cited from earlier work

Row | Structure (SMILES) | kinetic inertia [1] [days] | kinetic inertia (dissociation, in words) [1] | further results
1 | CNC[C@H](O)[C@@H](O)[C@H](O)[C@H](O)CO.O=C([O-])CN1CCN(CC(=O)[O-])CCN(CC(=O)O)CCN(CC(=O)[O-])CC1.[Gd+3] [gadoterate] | 4 | – | –
2 | O=C([O-])CN1CCN(CC(=O)[O-])CCN(CC(=O)O)CCN(CC(=O)[O-])CC1.[Gd+3] [DOTA-Gd, gadolinium complex of 1,4,7,10-tetraazacyclododecane-N,N′,N″,N′″-tetraacetic acid] | – | – | log (Ktherm), stability constant [2]: 25.6
3 | O=C([O-])CN1CCN(CC(=O)[O-])CCN([C@H](CO)[C@H](O)CO)CCN(CC(=O)[O-])CC1.[Gd+3] (racemic) [gadobutrol] | 0.75 | – | –
4 | O=C([O-])CN(CCN(CC(=O)[O-])CC(=O)[O-])CCN(CC(=O)[O-])CC(=O)[O-].[Gd+3] [gadopentetate] | – | dissociate instantaneously | –
5 | CNC(=O)CN(CCN(CCN(CC(=O)[O-])CC(=O)NC)CC(=O)[O-])CC(=O)[O-].[Gd+3] [gadodiamide] | – | dissociate instantaneously | –
